Assay results from patent publication US20130203718A1 (priority 2010, published 2013).

target: T1, hPRB (Homo sapiens, UniProt P06401); assay: PR transactivation assay (GRE2-Luc) in MDA-MB-231 iPRAB cells conditionally expressing hPRB; assay type: cell-based; set-up: expressed in transfected cells; settings: not given
T1 sequence (P06401 1-933): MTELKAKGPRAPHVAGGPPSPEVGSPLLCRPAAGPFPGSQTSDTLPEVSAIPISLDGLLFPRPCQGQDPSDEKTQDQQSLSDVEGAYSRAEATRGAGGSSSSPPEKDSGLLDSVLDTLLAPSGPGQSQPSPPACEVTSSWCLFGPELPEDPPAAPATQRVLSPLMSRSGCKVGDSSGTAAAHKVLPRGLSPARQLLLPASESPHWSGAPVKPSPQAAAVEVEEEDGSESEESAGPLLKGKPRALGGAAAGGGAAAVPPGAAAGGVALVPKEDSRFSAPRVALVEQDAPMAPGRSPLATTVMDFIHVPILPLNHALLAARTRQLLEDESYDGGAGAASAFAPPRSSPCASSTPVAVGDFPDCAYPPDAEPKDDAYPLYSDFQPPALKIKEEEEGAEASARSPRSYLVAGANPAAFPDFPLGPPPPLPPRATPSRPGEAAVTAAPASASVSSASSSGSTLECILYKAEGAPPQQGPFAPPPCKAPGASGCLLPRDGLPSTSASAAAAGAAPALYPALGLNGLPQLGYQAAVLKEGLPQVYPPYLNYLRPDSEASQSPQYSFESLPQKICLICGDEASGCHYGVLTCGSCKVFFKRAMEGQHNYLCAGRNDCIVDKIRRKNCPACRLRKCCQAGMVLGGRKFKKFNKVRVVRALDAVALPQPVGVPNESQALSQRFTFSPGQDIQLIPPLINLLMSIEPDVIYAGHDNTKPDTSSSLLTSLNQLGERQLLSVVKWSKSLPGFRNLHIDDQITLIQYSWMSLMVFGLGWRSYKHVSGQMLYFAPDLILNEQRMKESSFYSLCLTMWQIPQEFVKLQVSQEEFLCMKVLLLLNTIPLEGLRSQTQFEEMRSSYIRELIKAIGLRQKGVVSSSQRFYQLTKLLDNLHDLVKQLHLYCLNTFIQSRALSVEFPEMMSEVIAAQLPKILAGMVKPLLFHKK
Procedure: Establishment of the MDA-MB-231 iPRAB cells.
The PR negative breast cancer cells MDA-MB-231 were routinely maintained in RPMI 1640 medium with L-glutamine enriched with 5% fetal calf serum (FCS) and supplemented with antibiotics (penicillin 100 UI/ml, streptomycin 100 μg/ml). MDA MB-231 iPRAB cells allowing the bi-inducible expression of PRA and PRB isoforms were generated in two steps. First, pZX-TR vector expressing inducer proteins required for Tet-on (Tet-Repressor) and Ecdysone receptor-based system (EcR and RXR hybrids) was engineered using pcDNA6-TR (T-REx system, Invitrogen) and pZRD (Lessard, J. Prostate 2007 67, 808) derived from Rheoswitch system (NE Biolabs). Transfection of MDA-MB-231 cells by pZX-TR (harboring zeocin resistant gene) was performed using Lipofectamine 2000 (Invitrogen). Three hundred clones resistant to Zeocin (1 μg/ml) were isolated, amplified and screened for the proper functioning of both RheoSwitch and Tet-on inducible systems by transient transfection with pGal-4-luciferase or pTO-luciferase reporter genes generated as described. Luciferase activity was determined in the absence or presence of respective inducer ligand RSL1 (diacylhydrazine, a non-steroidal agonist of ecdysone, NE Biolabs) (500 nM) or Doxycycline (Dox, a tetracyclin analog, Sigma-Aldrich) (1 μg/ml) after 24 h. The clone that produced minimal background in the absence of both RSL1 and Dox and high inducible expression level on reporter gene assays by both systems was finally selected, verified and amplified (clone 250). This cell line was then further stably transfected by PR isoforms expressing vectors specifically engineered: pGaluas-PRA (harboring neomycin resistant gene) expressing PRA under the control of Gal4 Upstream Activating Sequences upstream of a truncated CMV promoter, and pTO-PRB (harboring blasticidin resistant gene) expressing PRB under the control of TetO2 responsive elements downstream of the full CMV promoter. Clones resistant to zeocin (1 μg/ml), neomycin (500 μg/ml) and blasticidin (2 μg/ml) were then isolated, amplified and screened by Western blot for PR isoforms expression in the absence or presence of both RSL1 (500 nM) and Dox (1 μg/ml) after 24 h. […] It was used to evaluate APRn properties and was defined as MDA-MB-231 iPRAB cells conditionally expressing PRB in the presence of doxycyclin (1 μg/ml).
PR Transactivation Assays in MDA-MB-231 iPRAB Cells.
The cells were cultured in 96-well plates in RPMI 1640 medium with L-glutamine without phenol red, enriched with 5% DCC serum containing inducer ligand RSL1 (500 nM) or Dox (1 μg/ml) for PRA or PRB expression during 24 h. Cells were then transfected with GRE2-Luc (100 ng) and β-galactosidase (20 ng) plasmids during 6 h, using Lipofectamine 2000 (Invitrogen). […] Whole cell extracts were collected using lysis buffer (Promega). Luciferase and β-galactosidase activity or total protein contents (BCA assay) were determined using a luminometer (Victor 378, Perkin Elmer). Luciferase activity was normalized by β-galactosidase activity or total protein contents.
All the synthesized APRn were classified in 4 series depending on the nature of their C3 substituent (R1/R′1 groups). The first one (series 1) includes APRn with no C3 substituent (R1═R′1═H) whereas series 2, 3 and 4 are related to APRn bearing a methoxyl (R1═OMe), a hydroxyl (R1═OH) and a fluorine atom (R1═F), respectively. The agonist/antagonist activities of APRn were determined either in human HEK293T cells transiently expressing hPRB or in human MDA-MB-231 iPRAB cells conditionally expressing hPRB, by using a luciferase reporter gene placed under the control of a glucocorticoid response element (GRE2-Luc). The APRn “agonist efficacy” was determined from the luciferase activity measured in the presence of APRn (1 μM). […] The “agonist efficacy” and “antagonist efficacy” are expressed as defined in the biological protocols section.

Row | Compound | IC50
1 | CC#C[C@]1(O)CCC2C3CC[C@H]4C[C@@H](F)CC[C@]4(C)C3CC[C@@]21C (stereo partly drawn) [APR-43, 3β-Fluoro-17α-(1-propynyl)-5α-androstan-17β-ol] | ~500 nM
2 | C[C@@H]1CCC2C3CC=C4C[C@@H](F)CC[C@]4(C)C3CC[C@]2(C)[C@H]1F (stereo partly drawn) [APR-19, 3β,17α-Difluoro-17α-methyl-D-Homo-pregn-5-ene] | ~500 nM
3 | C[C@]12CCC3C(CC=C4C[C@@H](F)CC[C@@H]43)C1CCC2=O (stereo partly drawn) [APR-47, 3β-Fluoro-19-nor-androst-5-en-17-one] | ~500 nM
4 | CC#C[C@]1(O)CCC2C3CC=C4C[C@@H](F)CC[C@@H]4C3CC[C@@]21C (stereo partly drawn) [APR-51, 3β-Fluoro-17α-(1-propynyl)-19-nor-androst-5-en-17β-ol] | ~500 nM
5 | CC#C[C@]1(O)CCC2C3CC[C@H]4CCCC[C@@H]4C3CC[C@@]21C (stereo partly drawn) [APR-54, 17α-(1-Propynyl)-19-nor-5-androstan-17β-ol] | ~500 nM

same assay, conditions: dose response curves, MDA-MB-231 iPRAB cells expressing hPRB, FIG. 9; read-out: IC50

Row | Compound | IC50
6 | CC(=O)[C@H]1CC[C@H]2[C@@H]3CC=C4C[C@@H](F)CC[C@]4(C)[C@H]3CC[C@]12C [APR-16, 3β-Fluoropregn-5-en-20-one] | ~500 nM
